Test results taken from US20030162759A1, “Aldosterone blocker therapy to prevent or treat inflammation-related disorders” (priority 2000, published 2003).
Several values for one entry are separate records, joined by “and”; a condition that tells them apart may be missing. Equal values may be shown once. Entries after “also recorded” stand apart in the source; their conditions may differ.

What was measured:
Assay type in all cases: in vivo, rat
Collagen III = experiment: Assay C: Collagen III mRNA in left ventricle (TaqMan); settings: for Collagen-III mRNA: individual rats; for Collagen-III mRNA, Mean: group mean
Description: The procedure of Assay B was expanded upon in a further study. […] Myocardial tissue from animals in each treatment group was examined after 7, 14, or 30 days of treatment.
Potassium chloride supplementation was added to the saline solution in order to prevent the potential hypokalemia associated with aldosterone excess.
At the time of the surgery, an Alzet 2002 osmotic minipump (Alza Corp., Palo Alto, Calif.) containing either vehicle (9% ethanol/87% propylene glycol/4% dH2O) or 1.0 mg/mL d-aldosterone (Sigma Chemical, St. Louis, Mo.) was inserted subcutaneously at the nape of the neck. Aldosterone was administered at a dose of 0.75 g/hour. […] Animals were sacrificed from each group (n=8-13) after 7, 14, or 30 days of treatment.
Following exsanguination, hearts and kidneys were isolated, removed, rinsed in cold phosphate-buffered saline, and blotted dry. Kidneys were immediately bifurcated through the long axis with a razor blade and placed in 10% neutral buffered formalin (NBF, Richard-Allen Scientific, Kalamazoo, Mich.). For the hearts, the right ventricle (RV) was cut away from the left ventricle (LV), both ventricles were weighed using a Mettler AE163 balance (Mettler-Toledo, Inc., Hightstown, N.J.), and the RV was placed in 10% NBF. A 2 mm coronal slab of the LV apex was removed and frozen with dry ice/isopentane for analysis of gene expression and the remaining portion of the LV was placed in 10% NBF for fixation. Final wet trimming was completed after 3-4 days fixation where a second 2 mm coronal slab was removed for hydroxyproline analysis and a third 2 mm slab was removed from the equatorial region for histology.
The fluorogenic 5′-nuclease assay (TaqMan PCR) using Applied Biosystems' 7700 Sequence Detection System (Applied Biosystems, Foster City, Calif.) allowed for real time detection/quantitation of a specific gene by monitoring the increase in fluorescence of a gene-specific, dye-labeled oligonucleotide probe. Probes for target and reference genes were labeled at the 5′-end with a 6-carboxyfluorescein (6FAM) reporter dye and at the 3′-end with a 6-carboxy-N,N,N′,N′-tetramethylrhodamine (TAMRA) quencher dye. When the probe was annealed to the target gene, fluorescence of 6FAM was prevented by the close proximity of TAMRA. The exonuclease activity of Taq polymerase released the dyes from the oligonucleotide probe by displacing the probe from the target sequence resulting in fluorescence excitation in direct proportion to the amount of target message present. Data analysis was performed using the Sequence Detection System software from Applied Biosystems.
Primers and probes were designed using Oligo Primer Analysis Software, Version 5.0 (National Biosciences Inc. (NBI)-Wojciech Rychlik, Cascade, Colo.). Primers were synthesized by Life Technologies (Grand Island, N.Y.) and probes were synthesized by Applied Biosystems. Primer/probe sets were designed from known sequences of rat genes to be analyzed. All target gene values were normalized to a reference gene, constitutively expressed cyclophilin. Primer/probe sets sequences can be found in Table 8
RNA was extracted from frozen (−70° C.) left ventricle (LV) tissue (approximately 10-20 mg) using 1.5 mL RNA-STAT 60 according to manufacturer's instructions (Leedo Medical Laboratories, Inc., Houston, Tex.). Briefly, tissues were homogenized using a tissue homogenizer equipped with a 5 mm probe (Ultra-Turrax T8 Homogenizer, IKA Works, Inc. Wilmington, N.C.). Following homogenization, an equal volume of molecular grade chloroform (Sigma Chemical Co., St. Louis, Mo.) was incubated with periodic mixing for 10 min at room temperature. Samples were centrifuged at 12,000 g for 10 min and RNA was precipitated from the top layer by adding an equal volume of molecular grade isopropanol (Sigma Chemical Co.) followed by an overnight incubation at −80° C.

aldosterone infused rats = experiment: Assay B aldosterone infusion model: myocardial fibrosis (interstitial collagen volume fraction, hydroxyproline); settings: aldosterone/salt treatment, 4 weeks
Description: Assay B: In vivo Aldosterone Infusion Model Male Sprague Dawley rats (n=39; BW=250 g) […] Uni-nephrectomy performed during implantation of mini-pumps 2. Aldosterone (0.75 mg/hr, sc via aizet minipump) 2. […] 1. […] Sacrifice after 4 weeks. Hearts were stained with hematoxylin&eosin and the collagen specific dye picro-sirius red and were analyzed for determination of interstitial collagen volume fraction and morphologic abnormalities (i.e. necrosis, vascular injury). Hydroxyproline concentration was measured in the frozen hearts.

COX-2 = experiment: Assay B aldosterone infusion model: COX-2 mRNA in heart by quantitative RT-PCR (Taqman)
Description: (§1) Assay B: In vivo Aldosterone Infusion Model Male Sprague Dawley rats (n=39; BW=250 g) […] Uni-nephrectomy performed during implantation of mini-pumps […] Aldosterone ([…], sc via aizet minipump) […] 1. […] Sacrifice after 4 weeks. Hearts were harvested and divided by half through a transverse section at the mid-ventricles: The upper half was stored into formalin. The bottom part was snap-frozen in liquid nitrogen for biochemical analysis. Determination of osteopontin and COX-2 was performed by quantitative RT-PCR (Taqman). Osteopontin was also identified in the heart by immunohistochemistry.

osteopontin [1] = experiment: Assay B aldosterone infusion model: osteopontin mRNA in heart by quantitative RT-PCR (Taqman)
Description: as §1

[2] = test system: angiotensin II infused rats; experiment: Assay A angiotensin II infusion model: urinary Na+/K+ ratio (natriuresis index); settings: saline-drinking rats, eplerenone 100 mpk
Excerpt: 24-hours food and fluid intake and urine output measured every day Urine samples collected every day for determination of urinary electrolytes. Electrolyte excretion. The ratio between daily urinary Na^+ excretion and urinary K^+ excretion (U Na^+/K^+ ratio) was used as an index for natriuresis. Urinary Na^+/K^+ ratio was similar in all groups before the start of the treatments, and increased similarly in all animals upon initiation of the high salt diet.

osteopontin [3] = experiment: Assay B aldosterone infusion model: serum (circulating) osteopontin at 28 days; settings: NaCl 1% drinking rats with aldosterone and eplerenone
Description: Assay B: In vivo Aldosterone Infusion Model Male Sprague Dawley rats (n=39; BW=250 g) […] Uni-nephrectomy performed during implantation of mini-pumps 2. Aldosterone ([…], sc via aizet minipump) 2. […] Sacrifice after 4 weeks.

[4] = test system: stroke-prone spontaneously hypertensive rats; experiment: Stroke-prone spontaneously hypertensive rats: survival and cerebral injury (FIGS. 37-38); settings: stroke-prone spontaneously hypertensive rats (FIGS. 37, 38)
[5] = heart, quantitative RT-PCR, aldosterone/salt rats, 4 weeks, eplerenone 100 mpk p.o.

| SMILES | Collagen-III mRNA (Collagen III; Table 9.14, 7-day protocol, listed as Aldosterone + salt) | Collagen-III mRNA, Mean (Collagen III; 14 days of treatment) [AU] | Collagen-III mRNA, Mean (Collagen III; 30 days of treatment) [AU] | Collagen-III mRNA (Collagen III; 14 days of treatment, relative to cyclophilin expression, listed as Aldosterone + salt) | Collagen-III mRNA (Collagen III; 30 days of treatment, relative to cyclophilin expression, listed as Aldosterone + salt) | Myocardial fibrosis (interstitial collagen volume fraction, hydroxyproline concentration) (aldosterone infused rats) | Collagen-III mRNA (Collagen III; 14 days of treatment, relative to cyclophilin expression, listed as Eplerenone + aldosterone + salt) | Collagen-III mRNA (Collagen III; 30 days of treatment, relative to cyclophilin expression, listed as Eplerenone + aldosterone + salt) | Collagen-III (collagen type III mRNA) (Collagen III; mean ± SEM after 7 days of treatment, relative to cyclophilin expression) [AU] | Collagen-III (collagen type III mRNA) (Collagen III; mean ± SEM after 30 days of treatment, relative to cyclophilin expression) [AU] | COX-2 upregulation in myocardium (COX-2; aldosterone infused rats (FIG. 31)) | COX-2 relative mRNA expression (COX-2; [5]) | Osteopontin upregulation in myocardium (osteopontin [1]; aldosterone infused rats (FIG. 30)) | Osteopontin relative mRNA expression (osteopontin [1]; [5]) | Urinary Na+/K+ ratio (diuretic or natriuretic effect) [2] | Circulating (serum) osteopontin levels (osteopontin [3]) | Cerebral injury [4] |
| --- | --- | --- | --- | --- | --- | --- | --- | --- | --- | --- | --- | --- | --- | --- | --- | --- | --- |
| C[C@]12CCC(=O)C=C1CC[C@@H]1[C@@H]2[C@@H](O)C[C@]2(C=O)[C@@H](C(=O)CO)CC[C@@H]12 [aldosterone] | 0.65 AU and 1.30 AU | 1.08 | 1.39 | 0.76 AU and 1.80 AU and 0.44 AU and 1.39 AU and 0.59 AU | 0.75 AU and 0.58 AU and 0.72 AU | absence of myocardial fibrosis |  |  |  |  |  |  |  |  |  |  |  |
| COC(=O)[C@@H]1CC2=CC(=O)CC[C@]2(C)[C@@]23O[C@@H]2C[C@@]2(C)[C@@H](CC[C@@]24CCC(=O)O4)[C@H]13 [eplerenone, Pregn-4-ene-7,21-dicarboxylic acid, 9,11-epoxy-17-hydroxy-3-oxo-, γ-lactone, methyl ester, (7α, 11α, 17β) -] |  |  |  |  |  |  | 0.60 AU (2×) and 1.70 AU and 1.81 AU and 1.80 AU | 0.72 AU and 0.89 AU and 0.73 AU | 1.09 ± 0.21 | 1.53 ± 0.23 | prevention by eplerenone of COX-2 upregulation | 1.8±0.36 | prevention by eplerenone of osteopontin upregulation | 2.5±0.6 | did not produce a significant diuretic or natriuretic effect | marked decrease in circulating osteopontin levels | reduced cerebral injury; also recorded: decrease in cerebral injury |
